Data: patent EP4789665A1, “TREATMENT OF HIS HYPORESPONDERS” (NewAmsterdam Pharma B.V., priority 2021, dated 2023)
“And” between values parts separate entries of the source, which are not always exact repeats. Equal entries are not always repeated.

Target: T1, CETP (Homo sapiens, UniProt P11597)
T1 construct: endogenous in cells; host or cells: trial patients (in vivo, circulating plasma CETP)
T1 sequence (P11597 18-493): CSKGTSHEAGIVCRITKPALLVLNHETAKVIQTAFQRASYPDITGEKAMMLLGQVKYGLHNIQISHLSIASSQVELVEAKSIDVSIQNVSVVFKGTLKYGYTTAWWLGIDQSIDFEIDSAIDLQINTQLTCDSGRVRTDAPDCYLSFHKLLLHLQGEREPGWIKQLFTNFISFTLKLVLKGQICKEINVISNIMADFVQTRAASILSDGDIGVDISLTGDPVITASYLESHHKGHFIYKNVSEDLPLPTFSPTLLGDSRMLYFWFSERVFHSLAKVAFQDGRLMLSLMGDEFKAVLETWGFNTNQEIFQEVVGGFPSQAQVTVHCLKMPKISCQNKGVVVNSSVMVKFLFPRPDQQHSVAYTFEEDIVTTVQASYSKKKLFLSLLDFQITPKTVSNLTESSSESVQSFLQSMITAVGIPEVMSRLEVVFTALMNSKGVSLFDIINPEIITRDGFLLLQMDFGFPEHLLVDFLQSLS
Assay: Placebo-controlled, double-blind, randomized phase 2 study of obicetrapib as adjunct to high-intensity statin therapy: lipoprotein lipid and apolipoprotein responses
Format: in vivo
Settings: for LDL-C by PUC, % Change from Baseline LS mean (95% CI) / LDL-C reduced from baseline (Friedewald formula) / Apo B reduced by / Lp(a) reduced by / non-HDL-C reduced by: 8 weeks; for LDL-C by PUC, % Change from Baseline LS mean (95% CI) / Apo A1 Week 8 change, LS Mean ± SE / Apo B Week 8 change, LS Mean ± SE / HDL-C Week 8 change, LS Mean ± SE / LDL-C (Martin-Hopkins) Week 8 change, LS Mean ± SE / Lp(a) Week 8 change, LS Mean ± SE / Non-HDL-C Week 8 change, LS Mean ± SE / TG Week 8 change, LS Mean ± SE / VLDL-C Week 8 change, LS Mean ± SE / LDL-C (PUC) Week 8 change, LS Mean ± SE / LDL-C reduced from baseline (Friedewald formula) / Apo B reduced by / Lp(a) reduced by / non-HDL-C reduced by: adjunct to high-intensity statin; for LDL-C by PUC, % Change from Baseline LS mean (95% CI): Table 3; for Apo A1 Week 8 change, Median (min, max) / LDL-C (Martin-Hopkins) Week 8 change, Median (min, max) / Lp(a) Week 8 change, Median (min, max) / TG Week 8 change, Median (min, max) / VLDL-C Week 8 change, Median (min, max): adjunct to high-intensity statin therapy; for Apo A1 Week 8 change, LS Mean ± SE / Apo B Week 8 change, LS Mean ± SE / HDL-C Week 8 change, LS Mean ± SE / LDL-C (Martin-Hopkins) Week 8 change, LS Mean ± SE / Lp(a) Week 8 change, LS Mean ± SE / Non-HDL-C Week 8 change, LS Mean ± SE / TG Week 8 change, LS Mean ± SE / VLDL-C Week 8 change, LS Mean ± SE / LDL-C by Friedewald, % Change from Baseline LS mean: MMRM; for LDL-C (PUC) Week 8 change, LS Mean ± SE: analysis of covariance model, Table 9; for ApoB, % change from Baseline Median / HDL-C, % change from Baseline Median / LDL-C by Friedewald, % Change from Baseline (median) / LDL-C by PUC, % Change from Baseline (median) / Non-HDL-C, % Change from Baseline (median): week 8, adjunct to high-intensity statin therapy; for LDL-C by Friedewald, % Change from Baseline LS mean: week 8, adjunct to high-intensity statin; for LDL-C reduced from baseline (Friedewald formula): primary analysis; for LDL-C reduced from baseline (Friedewald formula) / Apo B reduced by / Lp(a) reduced by / non-HDL-C reduced by: stated as reduction
Procedure: To evaluate the efficacy, safety, and tolerability of obicetrapib as an adjunct to high-intensity statin therapy, a placebo-controlled, double-blind, randomized, phase 2 study was carried out.
The study consisted of three arms: 1) 5 mg obicetrapib as adjunctive therapy; 2) 10 mg obicetrapib as adjunctive therapy and 3) a placebo arm. The second objective was to evaluate other lipoprotein lipid and apolipoprotein responses, safety and tolerability profiles, and plasma concentrations of obicetrapib during treatment and for several weeks of follow-up. Lastly, this study aimed to determine if different quantitative measures of LDL-C levels produced differences in the treatment effects of CETP inhibition.
This randomised, double-blind, placebo-controlled, parallel-group phase 2 trial was conducted in male and female patients (18-75 years), treated with high-intensity statin therapy, with LDL-C levels >70 mg/DL and TG levels < 400 mg/dL. Key exclusion criteria were patients with BMI > 40 kg/m; Significant cardiovascular disease; HbA1c > 10%; Uncontrolled hypertension; Active muscle disease; GFR < 60 ml/min; Hepatic dysfunction; Anemia; History of malignancy; Alcohol abuse; Treatment with investigational product; Treatment with PCSK9 inhibitor; Clinically significant condition; and/or prior exposure to a CETP inhibitor. Patients were recruited at 19 sites in the United States. The trial was approved by Independent Ethics Committees, and each patient provided written informed consent. The trial was conducted in accordance with the principles of the Declaration of Helsinki and Good Clinical Practice Guidelines and the protocol was registered on ClinicalTrials.gov (NCT04753606).
The screening period for this study took up to 2-weeks. Afterwards patients were randomized to placebo, 5 mg obicetrapib or 10 mg obicetrapib for an 8-week treatment period. After the treatment period, patients continued for a 4-week safety follow-up and a 15-week PK follow-up.
Patients were randomly assigned to receive one of the three treatments investigative treatments. All treatments were to be taken once daily with food for 8 weeks. Safety was assessed throughout the trial by monitoring adverse events and concomitant medication use, 12-lead electrocardiograms (ECGs), vital signs, laboratory safety assessments and physical examinations. Additional assessments included salivary cortisol, plasma aldosterone, high-sensitivity C-reactive protein (hsCRP) and endothelin 1.
Efficacy assessments included fasted lipid profiles including total cholesterol (TC), HDL-C, LDL-C, triglycerides, apolipoprotein B (ApoB), and derived parameters.
Total cholesterol and triglycerides were measured by homogenous enzymatic assay using a Modular analyser (cholesterol oxidase peroxidase-peroxidase aminophenazone phenol [CHOP-PAP]) method and a glycerol phosphate oxidase [GPO-PAP] method, respectively. Apolipoprotein B was measured by immunoturbidimetry using reagents from Rolf Greiner Biochemica (Germany) and N apoprotein standard serum from Siemens (Germany). LDL particle size was determined by gradient gel electrophoresis. HDL fraction was separated by a combined ultracentrifugation-precipitation method (β-quantification). HDL-2 and HDL-3 fractions were then separated by further ultracentrifugation. Total-cholesterol in HDL, HDL 2 and HLD-3 fractions, free cholesterol in HDL fraction, triglycerides in HDL fraction and phospholipids in plasma and HDL-fraction were measured using enzymatic methods and reagents from Diasys Diagnostics (Germany). The measurements were performed on an Olympus AU600 automatic analyzer and were calibrated using secondary standards from Roche Diagnostics (total-cholesterol, triglycerides) and Diasys Diagnostics (free cholesterol, phospholipids), respectively. Esterified cholesterol was calculated as the difference between total-cholesterol and free cholesterol.
The primary outcome measure was LDL-C (percent change). […]

[1] = 5 mg once daily for 8 weeks as adjunct to high-intensity statin therapy
[2] = 5 mg once daily, listed as obicetrapib
[3] = 10 mg once daily for 8 weeks as adjunct to high-intensity statin therapy
[4] = 10 mg once daily, listed as obicetrapib

SMILES: CCOC(=O)N1c2ccc(C(F)(F)F)cc2[C@@H](N(Cc2cc(C(F)(F)F)cc(C(F)(F)F)c2)c2ncc(OCCCC(=O)O)cn2)C[C@H]1CC [Obicetrapib, (2R,4S)-4-{[3,5-bis(trifluoromethyl)benzyl]-[5-(3-carboxypropoxy)pyrimidin-2-yl]amino}-2-ethyl-6-trifluoromethyl-3,4-dihydro-2H-quinoline-1-carboxylic acid ethyl ester]
- ApoB, Change from Baseline Median mg/dL [1]: -22.0 mg/dL
- ApoB, EoT Median [1]: 65.0 mg/dL
- HDL-C, Change from Baseline Median mg/dL [1]: 60.0 mg/dL
- HDL-C, EoT Median [1]: 107.0 mg/dL
- LDL-C by Friedewald, EoT Median [1]: 51.0 mg/dL
- LDL-C by PUC, EoT Median [1]: 53.0 mg/dL
- Non-HDL-C, EoT Median [1]: 71 mg/dL
- LDL-C by PUC, % Change from Baseline LS mean (95% CI) (5 mg once daily): -37.98%
- Apo A1 Week 8 change, Median (min, max) (5 mg once daily): 44.6% and 44.6 (-10.0, 87.1) %
- LDL-C (Martin-Hopkins) Week 8 change, Median (min, max) (5 mg once daily): -42.5 (-80.8, 74.4) %
- Lp(a) Week 8 change, Median (min, max) (5 mg once daily): -33.8 (-84.6, 93.8) %
- TG Week 8 change, Median (min, max) (5 mg once daily): -11.0 (-53.3, 86.7) %
- VLDL-C Week 8 change, Median (min, max) (5 mg once daily): -11.5 (-53.5, 83.3) %
- TG Week 8 change, Median (min, max) [2]: -11.0%
- VLDL-C Week 8 change, Median (min, max) [2]: -11.5%
- Apo A1 Week 8 change, LS Mean ± SE (5 mg once daily): 41.1 ± 3.04%
- Apo B Week 8 change, LS Mean ± SE (5 mg once daily): -22.4 ± 2.58%
- HDL-C Week 8 change, LS Mean ± SE (5 mg once daily): 122 ± 6.59%
- LDL-C (Martin-Hopkins) Week 8 change, LS Mean ± SE (5 mg once daily): -39.6 ± 3.68%
- Lp(a) Week 8 change, LS Mean ± SE (5 mg once daily): -30.9 ± 4.43%
- Non-HDL-C Week 8 change, LS Mean ± SE (5 mg once daily): -34.4 ± 3.18%
- TG Week 8 change, LS Mean ± SE (5 mg once daily): -6.63 ± 5.32%
- VLDL-C Week 8 change, LS Mean ± SE (5 mg once daily): -6.02 ± 5.24%
- LDL-C (PUC) Week 8 change, LS Mean ± SE (5 mg once daily): -35.7 ± 3.31%
- ApoB, % change from Baseline Median (5 mg once daily): -24.40% and -24.4 (-58.5, 47.4) %
- HDL-C, % change from Baseline Median (5 mg once daily): 135% and 135.4% and 135 (-26.4, 213) %
- LDL-C by Friedewald, % Change from Baseline (median) (5 mg once daily): -42.90% and -42.9 (-81.9, 72.4) %
- LDL-C by PUC, % Change from Baseline (median) (5 mg once daily): -41.5% and -41.45% and -41.5 (-71.2, 62.3) %
- Non-HDL-C, % Change from Baseline (median) (5 mg once daily): -38.9% and -38.9 (-65.6, 66.3) %
- LDL-C by PUC, % Change from Baseline (median) [2]: -41.5%
- LDL-C by Friedewald, % Change from Baseline LS mean (5 mg once daily): -37.94% and -38.0 ± 3.49%
- LDL-C reduced from baseline (Friedewald formula) (5 mg): 42.9%
- Apo B reduced by (5 mg): 24.4%
- Lp(a) reduced by (5 mg): 33.8%
- non-HDL-C reduced by (5 mg): 38.9%
- ApoB, Change from Baseline Median mg/dL [3]: -24.5 mg/dL
- ApoB, EoT Median [3]: 58.5 mg/dL
- HDL-C, Change from Baseline Median mg/dL [3]: 72.0 mg/dL
- HDL-C, EoT Median [3]: 117.5 mg/dL
- LDL-C by Friedewald, EoT Median [3]: 52.0 mg/dL
- LDL-C by PUC, EoT Median [3]: 49.5 mg/dL
- Non-HDL-C, EoT Median [3]: 69 mg/dL
- LDL-C by PUC, % Change from Baseline LS mean (95% CI) (10 mg once daily): -44.15%
- Apo A1 Week 8 change, Median (min, max) (10 mg once daily): 47.8% and 47.8 (13.5, 106) %
- LDL-C (Martin-Hopkins) Week 8 change, Median (min, max) (10 mg once daily): -49.2 (-77.0, 28.1) %
- Lp(a) Week 8 change, Median (min, max) (10 mg once daily): -56.5 (-85.7, 18.3) %
- TG Week 8 change, Median (min, max) (10 mg once daily): -7.85 (-63.7, 129) %
- VLDL-C Week 8 change, Median (min, max) (10 mg once daily): -7.90 (-44.4, 125) %
- LDL-C (Martin-Hopkins) Week 8 change, Median (min, max) [4]: -49.2%
- Apo A1 Week 8 change, LS Mean ± SE (10 mg once daily): 52.3 ± 3.04%
- Apo B Week 8 change, LS Mean ± SE (10 mg once daily): -28.1 ± 2.56%
- HDL-C Week 8 change, LS Mean ± SE (10 mg once daily): 157 ± 6.54%
- LDL-C (Martin-Hopkins) Week 8 change, LS Mean ± SE (10 mg once daily): -46.9 ± 3.65%
- Lp(a) Week 8 change, LS Mean ± SE (10 mg once daily): -42.0 ± 4.33%
- Non-HDL-C Week 8 change, LS Mean ± SE (10 mg once daily): -39.9 ± 3.15%
- TG Week 8 change, LS Mean ± SE (10 mg once daily): 2.45 ± 5.27%
- VLDL-C Week 8 change, LS Mean ± SE (10 mg once daily): 3.08 ± 5.19%
- LDL-C (PUC) Week 8 change, LS Mean ± SE (10 mg once daily): -46.8 ± 3.23%
- ApoB, % change from Baseline Median (10 mg once daily): -29.75% and -29.8 (-58.4, 13.0) %
- HDL-C, % change from Baseline Median (10 mg once daily): 165% and 165 (55.1, 286) %
- LDL-C by Friedewald, % Change from Baseline (median) (10 mg once daily): -45.65% and -45.7 (-78.0, 26.2) %
- LDL-C by PUC, % Change from Baseline (median) (10 mg once daily): -50.8% and -50.75% and -50.8 (-76.9, 15.6) %
- Non-HDL-C, % Change from Baseline (median) (10 mg once daily): -44.4% and -44.4 (-70.2, 22.5) %
- LDL-C by PUC, % Change from Baseline (median) [4]: -50.8%
- LDL-C by Friedewald, % Change from Baseline LS mean (10 mg once daily): -44.15% and -44.2 ± 3.46%
- LDL-C reduced from baseline (Friedewald formula) (10 mg): 45.7%
- Apo B reduced by (10 mg): 29.8%
- Lp(a) reduced by (10 mg): 56.5%
- non-HDL-C reduced by (10 mg): 44.4%
- median Apo B reductions from baseline (10 mg, post-hoc analysis, individuals with baseline Apo B >100 mg/dL): 39%
